US20250163387A1, “HUMAN PITUITARY NEUROENDOCRINE TUMOR ORGANOIDS AND METHODS OF MAKING AND USING THE SAME” (ARIZONA BOARD OF REGENTS OF THE UNIVERSITY OF ARIZONA, A …, priority 2022, published 2025)

Tests used:
iPSC^ctrl organoids [1] = assay: Nuclear irregularity index (NII) morphometric analysis; type: cell-based, human; settings: 500 nM
Method: (§1) Nuclear Morphometric Analysis (NMA) using treated organoids was performed based on a published protocol that measures cell viability based on the changes in nuclear morphology of the cells using nuclear stain Hoechst or DAPI [30]. Images of organoid nuclei were analyzed using the ImageJ Nuclear Irregularity Index (NII) plugin for key parameters that included cell area, radius ratio, area box, aspect, and roundness. Using the published spreadsheet template, the NII of each cell was calculated with the following formula: NII=Aspect−Area Box+Radius Ratio+Roundness. The area vs NII of vehicle-treated cells were plotted as a scatter plot using the template and considered as the normal cell nuclei. The same plots were generated for each condition, and the NII and area of treated cells were compared to the normal nuclei, and classified as one of the following NMA populations: Normal (N; similar area and NII), Mitotic (S; similar area, slightly higher NII), Irregular (I; similar area, high NII), Small Regular (SR; apoptotic, low area and NII), Senescent (LR; high area, low NII), Small Irregular (SI; low area, high NII), or Large Irregular (LI; high area, high NII). […] The percentage of cells in each NII classification category were calculated and plotted as a histogram using GraphPad Prism.

iPSC^USP48MV organoids [2] = assay: as above; type: cell-based, human; settings: 500 nM
Method: as §1

macroadenomas = settings: patients with macroadenomas; relacorilant for three months; cited from earlier work
SSTR2 = assay: Differential expression of SSTR2 in iPSC generated pituitary tumor organoids; type: cell-based, human; settings: iPSC organoids (ctrl, USP48MI, USP48MV, USP8); 500 nM; vs vehicle
iPSC^ctrl organoids [3] = assay: Proliferation by EdU uptake; type: cell-based, human; settings: drug alone, 500 nM
Method: (§2) Organoids were immunostained using published protocols by our laboratory. Proliferation was measured by using 5-ethynyl-2'-deoxyuridine (EdU) incorporation according to the Manufacturer's protocol (Click-IT EdU Alexa Fluor 555 Imaging Kit, Thermo Fisher Scientific C10338). Costaining was performed by blocking fixed organoids with 2% donkey serum (Jackson Immuno Research, #017-000-121) diluted in 0.01% PBST for 1 hr. at room temperature. Organoids were then incubated overnight at 4° C. with primary antibodies followed by secondary antibodies and Hoechst (Thermo Fisher Scientific H1399, 1:1000 in 0.01% PBST) for 1 hr at room temperature. Human specific primary antibodies used included: rabbit anti-ACTH (Thermo Fisher Scientific 701293, 1:250), rabbit anti-Synaptophysin (Thermo Fisher Scientific PA5-27286, 1:100), […] (Thermo Fisher Scientific PA5-98650, 1:50), rabbit anti-LH (Thermo Fisher Scientific PA5-102674, 1:100), mouse anti-FSH (Thermo Fisher Scientific MIF2709, 1:100), mouse anti-PRL (Thermo Fisher Scientific CF500720, 1:100), Alexa Flour conjugated GH (NB500-364AF647, 1:100) and mouse anti-CAM5.2 (SIGMA […]-95, 1:250). The secondary antibodies used included Alexa Fluor 488 Donkey Anti Rabbit IgG (H+L) (Thermo Fisher Scientific A21206, 1:100) or Alexa Fluor 647 Donkey Anti Mouse IgG (H+L) (Thermo Fisher Scientific A31571, 1:100). Organoids were visualized and images acquired by confocal microscopy using the Nikon CrestV2 Spinning Disk. Fluorescence intensity and percentage of EdU positive cells of total cells, were calculated using Nikon Elements Software (Version 5.21.05).

iPSC^USP48MV organoids [4] = assay: Proliferation by EdU uptake; type: cell-based, human; settings: drug alone, 500 nM
Method: as §2

hPITO37 = assay: Spectral flow cytometry (SSTR2, SSTR5, ACTH, zombie); type: cell-based, human; settings: Rela 382 nM, Mife 2.85 nM
Method: (§3) The multicolor flow cytometry panel was designed using the Cytek®Full Spectrum Viewer online tool to calculate the similarity index. The organoids were harvested in cold SFDM media and centrifuged at 400×g for 5 minutes. Supernatant was discarded and organoids were dissociated to single cells using Accutase® (Thermo Fisher Scientific 00-4555-56). The enzymatic reaction was stopped using prewarmed DPBS and cells were then centrifuged at 400×g for 5 minutes and incubated with fluorochrome-conjugated/unconjugated primary surface or cytoplasmic antibodies at 4° C. for 30 minutes. Cells were then washed with Cell Staining Buffer (BioLegend #420-201) and incubated with secondary antibodies at 4° C. for 30 minutes. Cells were fixed using Cytofix/Cytoperm™ Fixation/Permeabilization Solution (BD Biosciences #554714) at 4° C. for 20 minutes, followed by washing with Fixation/Permeabilization wash buffer. Cells were then labeled with fluorochrome-conjugated/unconjugated intracellular primary antibodies at 4° C. for 30 minutes, washed and incubated with secondary antibodies at 4° C. for 30 minutes. Cells resuspended in cell staining buffer and fluorescence measured using the Cytek Aurora 5 Laser Spectral Flow Cytometer. An unstained cell sample was fixed and used as reference control. UltraComp eBeads™, Compensation Beads (Thermo Fisher Scientific #01-2222-42) were stained with the individual antibodies and used as single stain control for compensation and gating. Data was acquired using the Cytek™ Aurora and analyzed using Cytobank software (Beckman Coulter, Indianapolis, IN).

iPSC^USP48MV organoids [5] = assay: as above; type: cell-based, human; settings: Rela 500 nM, Mife 500 nM
Method: as §3

SSTR5 = assay: Differential expression of SSTR5 in iPSC generated pituitary tumor organoids; type: cell-based, human; settings: iPSC organoids (ctrl, USP48MI, USP48MV, USP8); 500 nM; vs vehicle
[6] = tested on: pancreatic and ovarian cancer cell lines; settings: cited from earlier work
FKBP5 = assay: GR modulation: GR target gene FKBP5 expression in PitNET organoids; type: cell-based, human

In the case of `Cn1cc(S(=O)(=O)N2CCC3=Cc4c(cnn4-c4ccc(F)cc4)C[C@]3(C(=O)c3cc(C(F)(F)F)ccn3)C2)cn1` [relacorilant], the “apoptotic cells by nuclear morphology (NII)” value (iPSC^ctrl organoids [1]) is listed as “not observed”, the “apoptotic cells by nuclear morphology (NII)” value (iPSC^USP48MV organoids [2]) is listed as “increased apoptotic cells” and the “tumor (macroadenoma) regression” value (macroadenomas) is listed as “tumor regression in two patients”. The “expression of SSTR2” value (SSTR2) was “significant induction”, the “cell proliferation (EdU uptake)” value (iPSC^ctrl organoids [3]) was “did not induce organoid proliferation” and the “cell proliferation (EdU uptake)” value (iPSC^USP48MV organoids [4]) was “did not induce organoid proliferation”. The “cell death (Zombie positive cells)” value (hPITO37; Pas 837.5 nM) was “significant increase”, the “percentage of SSTR2 positive cells” value (hPITO37; vs Veh) was “significant increase” and the “percentage of SSTR5 positive cells” value (hPITO37; vs Veh) was “significant increase”. The ACTH positive cells (iPSC^USP48MV organoids [5]; Pas 100 nM) was “did not significantly increase”, the “cell death (Zombie positive cells)” value (iPSC^USP48MV organoids [5]; Pas 100 nM) was “significant increase” and the “percentage of SSTR2 positive cells” value (iPSC^USP48MV organoids [5]; vs Veh) was “significant increase”. The “percentage of SSTR5 positive cells” value (iPSC^USP48MV organoids [5]; vs Veh) was “significant increase”, the “expression of SSTR5” value (SSTR5) was “significant induction” and the apoptosis in vitro [6] was “induces apoptosis”. For the same molecule, the “differential expression of FKBP5” value (FKBP5) was “significantly reduced”.
